Measurements from publication PMC11040653, “Fluorescent carbazole-derived α-amino acids: structural mimics of tryptophan” (Chemical Science, 2024).
No end group written: not given here. 13e = not defined here

Assays:
[1] = parameters: method as in PMID 30957824; conditions: cited from earlier work
From the text: In combination with fluorescent spectroscopy, α-amino acids have also been used for molecular imaging, providing a method to study and visualise cellular processes in real time.[3] […] Furthermore, their occurrence at multiple sites within a protein can complicate spectroscopic analysis. To overcome these issues, many studies utilise extrinsic fluorescent labels.[4] However, these are typically large chromo ...

[2] = UV-Vis absorption and fluorescence emission spectra of amino acids 13a–e; type: physicochemical; conditions: for λ Abs / λ Em / λ Em (second wavelength): 5 μM; for λ Abs: UV-Vis; for λ Em / λ Em (second wavelength): fluorescence
Description: (§1) Next, the photophysical properties of amino acids 13a–13e were measured.[22,23] As it was important to identify an amino acid that could be used as a probe for different applications, the photophysical properties were assessed in both an organic solvent (methanol) and water (Table 2).
(§2) 5. Photophysical Data for a-Amino Acids 13a–e
(§3) Absorption and emission data were recorded using the following instruments:
(§4) 1. UV-Vis spectra were recorded on a Perkin Elmer Lamda 25 instrument. Fluorescence spectra were recorded on a Shimadzu RF-5301PC spectrofluorophotometer. Emission data were measured using excitation and emission bandpass filters of 3 nm.
2. Both UV-Vis spectra and fluorescence spectra were recorded on a Horiba Duetta Fluorescence and Absorbance spectrometer. Absorbance spectra were recorded with an integration time of 0.05 s, and a band pass of 5 nm. Fluorescence spectra were recorded with and excitation and emission band pass of 5 nm, an integration time of 2 s, and with detector accumulations set to 1. […]

[3] = Fluorescence quantum yield (comparative method, anthracene and L-tryptophan standards) and brightness; type: physicochemical; conditions: for Φ F (quantum yield): anthracene and L-tryptophan as standards, five concentrations, absorption below 0.1
Description: as §1, §2, §3, §4
2. Both UV-Vis spectra and fluorescence spectra were recorded on a Horiba Duetta Fluorescence and Absorbance spectrometer. Absorbance spectra were recorded with an integration time of 0.05 s, and a band pass of 5 nm. Fluorescence spectra were recorded with and excitation and emission band pass of 5 nm, an integration time of 2 s, and with detector accumulations set to 1.
Quantum yields were determined using a comparative method against two standards. Anthracene (Φ = 0.27, in ethanol) and ʟ-tryptophan (Φ = 0.14 in water) were used as standard references.9 The integrated fluorescence intensity of each compound was determined from the emission spectra given.
Measurements were performed at five different concentrations. Concentrations were chosen to ensure the absorption value was below 0.1 to avoid re-absorption effects. Integrated fluorescence intensity was plotted as a function of the measured absorbance and a linear fit was calculated. The resultant gradient was then used to calculate the quantum yield, using the equation below: […]
Subscript ST signifies the quantities associated with the quantum yield standard. Subscript X signifies the quantities associated with the novel compound. GradX is the determined gradient associated with the novel compound. GradST is the determined gradient associated with quantum yield standard. η is the refractive index of the solvent used in the fluorescence measurements. η = 1.333 for water, 1.361 for ethanol and 1.331 for methanol.

[4] = Solvatochromism of 13c–13e (emission in various solvents); type: physicochemical; conditions: emission in solvents of different polarity
Description: Measurements were performed at five different concentrations. […] Integrated fluorescence intensity was plotted as a function of the measured absorbance and a linear fit was calculated. […]
Subscript ST signifies the quantities associated with the quantum yield standard. Subscript X signifies the quantities associated with the novel compound. […]

[5] = Circular dichroism spectroscopy of modified TrpZip1 peptide; type: physicochemical
Description: Following successful preparation of the carbazole α-amino acids, these were investigated as structural mimics of tryptophan. The effect of substituting amino acid 13e for a tryptophan residue in a well-characterised designed peptide was studied. The beta hairpin TrpZip1 was chosen as a model of beta structure.[21] An Fmoc-derivative of amino acid 13e was prepared under standard conditions and incorporated into the peptide using SPPS protocols. The resulting peptide, 14 (Table 1) was purified by reverse phase HPLC and characterised using high resolution electrospray ionisation mass spectrometry.

[6] = ethanol; standard reference; ref 9 (supplement); cited from earlier work
Description: page 24: 5. Photophysical Data for a-Amino Acids 13a–e Absorption and emission data were recorded using the following instruments: 1. UV-Vis spectra were recorded on a Perkin Elmer Lamda 25 instrument. Fluorescence spectra were recorded on a Shimadzu RF-5301PC spectrofluorophotometer. Emission data were measured using excitation and emission bandpass filters of 3 nm. 2. Both UV-Vis spectra and fluorescence spectra were recorded on a Horiba Duetta Fluorescence and Absorbance spectrometer. Absorbance spectra were recorded with an integration time of 0.05 s, and a band pass of 5 nm. Fluorescence ...

Compound	ε (molar attenuation coefficient) ([2]; MeOH)	λ Abs ([2]; MeOH)	λ Em ([2]; MeOH)	λ Em (second wavelength) ([2]; MeOH)	ε (molar attenuation coefficient) ([2]; Water)	λ Abs ([2]; Water)	λ Em ([2]; Water)	Brightness ([3]; MeOH)	Φ F (quantum yield) ([3]; MeOH)	Brightness ([3]; Water)	Φ F (quantum yield) ([3]; Water)	other results
N#Cc1cccc2[nH]cc(C[C@H](N)C(=O)O)c12 [compound 3, L-4-cyanotryptophan]	–	–	–	–	–	–	–	–	–	–	–	fluorescence lifetime [1]: long fluorescence lifetime
Cl.N[C@@H](Cc1ccc2[nH]c3ccccc3c2c1)C(=O)O [amino acid 13a, (2S)-2-Amino-3-(9H-carbazol-3’-yl)propanoic acid hydrochloride]	16 500 cm^−1 M^−1	342 nm	350 nm	366 nm	8800 cm⁻¹ M⁻¹	341 nm	352 nm	5120 cm⁻¹ M⁻¹	0.31	2460 cm⁻¹ M⁻¹	0.28	λ Em (second wavelength) ([2]; Water): 366 nm
Cl.N[C@@H](Cc1ccc2[nH]c3cc(C(F)(F)F)ccc3c2c1)C(=O)O [amino acid 13e, (2S)-2-amino-3-(7-trifluoromethyl-9H-carbazol-3’-yl)propanoic acid hydrochloride]	11 600 cm^−1 M^−1	–	365 nm	378 nm	14 000 cm^−1 M^−1	348 nm	380 nm	700 cm⁻¹ M⁻¹	0.06	3360 cm⁻¹ M⁻¹	0.24	increase in brightness in water ([3]; water relative to methanol): ~5 fold; ε and quantum yield in water ([3]; water relative to methanol): enhanced in water; solvatochromism [4]: minimal solvatochromism
peptide 14: TrpZip1 modified with amino acid 13e (SWTWEGNK-{13e-Thr-Trp-Lys-NH2}; reading uncertain)	–	–	–	–	–	–	–	–	–	–	–	secondary structure ([5]; CD, carbazole amino acid 13e replacing tryptophan in TrpZip1): preserved the original secondary structure; CD maximum ([5]; circular dichroism): 228 nm; CD minimum ([5]; circular dichroism): 214 nm; near-UV CD signal ([5]; circular dichroism, indicative of ordered aromatic side chains): 280–310 nm
COc1ccc2c(c1)[nH]c1ccc(C[C@H](N)C(=O)O)cc12.Cl [amino acid 13b, (2S)-2-Amino-3-(7-methoxy-9H-carbazol-3’-yl)propanoic acid hydrochloride]	12 700 cm^−1 M^−1	329 nm	354 nm	–	12 100 cm^−1 M^−1	331 nm	357 nm	4450 cm⁻¹ M⁻¹	0.35	5200 cm⁻¹ M⁻¹	0.43	–
Cl.N[C@@H](Cc1ccc2[nH]c3ccc4ccccc4c3c2c1)C(=O)O [amino acid 13c, (2S)-2-Amino-3-(7H-benzo[c]carbazol-10-yl)propanoic acid hydrochloride]	16 100 cm^−1 M^−1	351 nm	371 nm	388 nm	10 900 cm^−1 M^−1	–	377 nm	12 240 cm^−1 M^−1	0.76	6430 cm⁻¹ M⁻¹	0.59	λ Em (second wavelength) ([2]; Water): 390 nm; solvatochromism [4]: minimal solvatochromism
c1ccc2cc3ccccc3cc2c1 [Anthracene]	–	–	–	–	–	–	–	–	–	–	–	quantum yield of standard [6]: 0.27
